The results in this text go back to PubChem BioAssay (NCI).

Molecules are shown by their SMILES.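 A five-concentration, 48-hour dose response in 96-well plates underlies each endpoint, interpolated linearly between surrounding concentrations. TGI: total growth inhibition.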 Where only a bound is given, the exact number is not on record here.

One experiment has as its system SK-MEL-2 melanoma. As to the kind of experiment: growth of human tumour cells (NCI), 48 h.
`COc1cc(Br)cc2cc(-c3cn4ccsc4n3)c(=O)oc12` had a TGI of over 100 µM.

`COc1ccc(N/N=C2\CCOc3ccc(C)cc3C2=O)cc1` came in with a TGI of 46 µM.

Regarding `COC(=O)C1SC(SC)=NC12c1ccccc1Nc1ccccc12` (stereo not given), the TGI was determined as 47.3 µM.

For `CCOC(=O)CSc1c(C(=O)OCC)c(=O)n(-c2ccccc2)c(=S)n1-c1ccccc1`, the TGI is over 100 µM.

Turning to `C=CC1(C)CCC2C(=CCC3C2(C)CC(O)C(O)C3(C)COC2OC(C(=O)O)C(O)C(O)C2O)C1` (stereo not given) (tested in a mixture with another compound), the TGI was over 100 µM.

`C=C1C(=O)O[C@@H]2C(=O)[C@@H](C)CCC/C(C)=C/CC[C@@]3(C)O[C@@H]3C[C@@H]12` showed a TGI of over 100 µM.

With `Cc1ccccc1C(=O)N1CCc2c([nH]c3ccccc23)C1`, the TGI was 27 µM.

`Cc1nc2n(c1/C=C1/C(=O)Nc3cccc(Cl)c31)CCS2`: the TGI came to 51.8 µM.

Regarding `CCOC(=O)C(SCCO)C(C(=O)OCC)n1cnc2c(=O)[nH]c(NC(C)=O)nc21` (stereo not given), the TGI was over 100 µM.

`Cc1ccc([N+](=O)[O-])cc1NC1=NCCO1`: the TGI was over 100 µM.

With `N#CCCC1C(C#N)C2(Cl)CC1(Cl)C(Cl)=C2Cl` (stereo not given), the TGI was over 10 µM.

The compound `CC(C)(C)N1CSC(=S)N(Cc2ccco2)C1` registered a TGI of 14.6 µM.

Compound `O=c1c2cc([N+](=O)[O-])cnc2sn1-c1ccc([N+](=O)[O-])cc1` came in with a TGI of 88.1 µM.

For the next experiment, the system named is OVCAR-3 ovarian. As to the kind of experiment: growth of human tumour cells (NCI), 48 h.
The compound `CCCCCCc1cc2cc(-c3csc(CC#N)n3)c(=O)oc2cc1O` returned a TGI of over 100 µM.

Regarding `CN1CCN(C2=NCCO2)CC1`, the TGI was over 100 µM.

Take `O=C1CSC(c2ccc(Cl)cc2)N1c1ccc(Oc2ccc(Cl)cc2)c(Cl)c1` (stereo not given): the TGI came out at 29 µM.

As to `COC(=O)C([C@H](NC1(c2ccccc2)c2ccccc2-c2ccccc21)C(=O)OC)N(NC(=O)OCc1ccccc1)C(=O)OCc1ccccc1` (mixture of isomers), the TGI was over 100 µM.

For the compound `CC[C@@H]1CC[C@@H]2[C@H](CC[C@]3(C)[C@@H](OC(C)=O)CC[C@@H]23)[C@H]1COC(C)=O`, the TGI came to 34.6 µM.

Compound `Cc1ccc(N=NC(=Nc2ccccc2)c2ccc(N(CCC#N)CCC#N)cc2)cc1` showed a TGI of 75.1 µM.

The compound `C[C@@H]1CC[C@]2(C(=O)O)CC[C@]3(C)C(=CC[C@@H]4[C@@]5(C)CC[C@H](O)C(C)(C)[C@@H]5CC[C@]43C)[C@@H]2[C@]1(C)O` returned a TGI of 32.6 µM.

`CC(C)=CCc1c2c(c3occ(-c4ccc(O)cc4)c(=O)c3c1O)CC(C(C)(C)O)O2` (stereo not given) showed a TGI of 27.9 µM.

In turn, `Nc1nc(Cl)cc(NCC2(CO)CC(=O)C2)n1` displayed a TGI of over 100 µM.

The compound `COc1ccc(C2CC(c3c(O)ccc4ccccc34)=NN2C(C)=O)cc1OC` (stereo not given) came in with a TGI of 69.6 µM.

`O=C(N/N=C(/COc1ccc(Cl)cc1)N=Cc1ccncc1)c1ccncc1` displayed a TGI of over 100 µM.

For the compound `COc1ccc2cc(NC(=O)N/N=C\c3ccc([N+](=O)[O-])cc3)ccc2c1`, the TGI was over 100 µM.

In turn, `NC(N)=N/N=C/c1c(-c2ccc(N)cc2)nc2sccn12` returned a TGI of 67.3 µM.

As for `COc1cc(Br)cc2cc(-c3cn4ccsc4n3)c(=O)oc12`, the TGI is over 100 µM.

In the case of `COc1ccc(N/N=C2\CCOc3ccc(C)cc3C2=O)cc1`, the TGI is over 100 µM.

For `COC(=O)C1SC(SC)=NC12c1ccccc1Nc1ccccc12` (stereo not given), the TGI came to 45.8 µM.

`CCOC(=O)CSc1c(C(=O)OCC)c(=O)n(-c2ccccc2)c(=S)n1-c1ccccc1` showed a TGI of over 100 µM.

`C=CC1(C)CCC2C(=CCC3C2(C)CC(O)C(O)C3(C)COC2OC(C(=O)O)C(O)C(O)C2O)C1` (stereo not given) (tested in a mixture with another compound) had a TGI of over 100 µM.

Take `C=C1C(=O)O[C@@H]2C(=O)[C@@H](C)CCC/C(C)=C/CC[C@@]3(C)O[C@@H]3C[C@@H]12`: the TGI was over 100 µM.

Consider `Cc1ccccc1C(=O)N1CCc2c([nH]c3ccccc23)C1`, for which the TGI turned out to be 74.1 µM.

In the case of `Cc1nc2n(c1/C=C1/C(=O)Nc3cccc(Cl)c31)CCS2`, the TGI was over 100 µM.

`CCOC(=O)C(SCCO)C(C(=O)OCC)n1cnc2c(=O)[nH]c(NC(C)=O)nc21` (stereo not given): the TGI was over 100 µM.

`Cc1ccc([N+](=O)[O-])cc1NC1=NCCO1` gave a TGI of over 100 µM.

In turn, `N#CCCC1C(C#N)C2(Cl)CC1(Cl)C(Cl)=C2Cl` (stereo not given) displayed a TGI of over 10 µM.

Take `CC(C)(C)N1CSC(=S)N(Cc2ccco2)C1`: the TGI came to 4.94 µM.

Compound `O=c1c2cc([N+](=O)[O-])cnc2sn1-c1ccc([N+](=O)[O-])cc1` showed a TGI of over 100 µM.

A further experiment has as its system SF-295 CNS. Put plainly: growth of human tumour cells (NCI), 48 h.
As to `CCCCCCc1cc2cc(-c3csc(CC#N)n3)c(=O)oc2cc1O`, the TGI is over 100 µM.

Regarding `CN1CCN(C2=NCCO2)CC1`, the TGI was over 100 µM.

Compound `O=C1CSC(c2ccc(Cl)cc2)N1c1ccc(Oc2ccc(Cl)cc2)c(Cl)c1` (stereo not given) returned a TGI of 30.8 µM.

`COC(=O)C([C@H](NC1(c2ccccc2)c2ccccc2-c2ccccc21)C(=O)OC)N(NC(=O)OCc1ccccc1)C(=O)OCc1ccccc1` (mixture of isomers): the TGI was over 100 µM.

The compound `CC[C@@H]1CC[C@@H]2[C@H](CC[C@]3(C)[C@@H](OC(C)=O)CC[C@@H]23)[C@H]1COC(C)=O` displayed a TGI of 65.1 µM.

For `Cc1ccc(N=NC(=Nc2ccccc2)c2ccc(N(CCC#N)CCC#N)cc2)cc1`, the TGI turned out to be 92.4 µM.

`C[C@@H]1CC[C@]2(C(=O)O)CC[C@]3(C)C(=CC[C@@H]4[C@@]5(C)CC[C@H](O)C(C)(C)[C@@H]5CC[C@]43C)[C@@H]2[C@]1(C)O` had a TGI of 10.6 µM.

Take `CC(C)=CCc1c2c(c3occ(-c4ccc(O)cc4)c(=O)c3c1O)CC(C(C)(C)O)O2` (stereo not given): the TGI turned out to be 25 µM.

For the compound `Nc1nc(Cl)cc(NCC2(CO)CC(=O)C2)n1`, the TGI is over 100 µM.

`COc1ccc(C2CC(c3c(O)ccc4ccccc34)=NN2C(C)=O)cc1OC` (stereo not given) yielded a TGI of over 100 µM.

Compound `O=C(N/N=C(/COc1ccc(Cl)cc1)N=Cc1ccncc1)c1ccncc1` came in with a TGI of over 100 µM.

Compound `COc1ccc2cc(NC(=O)N/N=C\c3ccc([N+](=O)[O-])cc3)ccc2c1` displayed a TGI of over 100 µM.

Take `NC(N)=N/N=C/c1c(-c2ccc(N)cc2)nc2sccn12`: the TGI was determined as 55.6 µM.

Turning to `COc1cc(Br)cc2cc(-c3cn4ccsc4n3)c(=O)oc12`, the TGI is 76.6 µM.

Compound `COc1ccc(N/N=C2\CCOc3ccc(C)cc3C2=O)cc1` gave a TGI of over 100 µM.

For the compound `COC(=O)C1SC(SC)=NC12c1ccccc1Nc1ccccc12` (stereo not given), the TGI was over 100 µM.

In turn, `CCOC(=O)CSc1c(C(=O)OCC)c(=O)n(-c2ccccc2)c(=S)n1-c1ccccc1` displayed a TGI of over 100 µM.

`C=CC1(C)CCC2C(=CCC3C2(C)CC(O)C(O)C3(C)COC2OC(C(=O)O)C(O)C(O)C2O)C1` (stereo not given) (tested in a mixture with another compound): the TGI is over 100 µM.

As to `C=C1C(=O)O[C@@H]2C(=O)[C@@H](C)CCC/C(C)=C/CC[C@@]3(C)O[C@@H]3C[C@@H]12`, the TGI is over 100 µM.

`Cc1ccccc1C(=O)N1CCc2c([nH]c3ccccc23)C1` returned a TGI of over 100 µM.

As to `Cc1nc2n(c1/C=C1/C(=O)Nc3cccc(Cl)c31)CCS2`, the TGI is over 100 µM.

The compound `CCOC(=O)C(SCCO)C(C(=O)OCC)n1cnc2c(=O)[nH]c(NC(C)=O)nc21` (stereo not given) registered a TGI of over 100 µM.

With `Cc1ccc([N+](=O)[O-])cc1NC1=NCCO1`, the TGI was over 100 µM.

With `N#CCCC1C(C#N)C2(Cl)CC1(Cl)C(Cl)=C2Cl` (stereo not given), the TGI is over 10 µM.

`CC(C)(C)N1CSC(=S)N(Cc2ccco2)C1` returned a TGI of 31.5 µM.

Consider `O=c1c2cc([N+](=O)[O-])cnc2sn1-c1ccc([N+](=O)[O-])cc1`, for which the TGI is over 100 µM.
